Where “and” joins values, the source holds several entries; their conditions need not be identical. Equal values may be shown once.
What was measured:
[1] = 101 kPa, Liquid
[2] = mn = molality of the nth substance listed, in mol/kg; details: 101 kPa, Liquid

C[S+](C)[O-] [dimethyl sulfoxide]
[1]
Details | mass density
293.15 K | 1100.22 kg/m3
303.15 K | 1090.37 kg/m3 [middle of 4 runs]
308.15 K | 1085.41 kg/m3 and 1085.42 kg/m3
313.15 K | 1080.45 kg/m3 and 1080.43 kg/m3 and 1080.47 kg/m3

CCCCn1cc[n+](C)c1.[Br-] [1-butyl-3-methylimidazolium bromide] + C[S+](C)[O-]
[2]
Details | mass density [kg/m3]
293.15 K, m1 = 0.00417 | 1100.42
293.15 K, m1 = 0.00643 | 1100.53
293.15 K, m1 = 0.00951 | 1100.68
293.15 K, m1 = 0.01236 | 1100.82
293.15 K, m1 = 0.015 | 1100.95
293.15 K, m1 = 0.01784 | 1101.09
293.15 K, m1 = 0.02066 | 1101.23
293.15 K, m1 = 0.02307 | 1101.35
293.15 K, m1 = 0.02628 | 1101.51
293.15 K, m1 = 0.02848 | 1101.62
303.15 K, m1 = 0.00497 | 1090.6
303.15 K, m1 = 0.00823 | 1090.76
303.15 K, m1 = 0.01126 | 1090.91
303.15 K, m1 = 0.01409 | 1091.05
303.15 K, m1 = 0.01689 | 1091.19
303.15 K, m1 = 0.02008 | 1091.35
303.15 K, m1 = 0.02326 | 1091.51
303.15 K, m1 = 0.02642 | 1091.67
303.15 K, m1 = 0.02917 | 1091.82
303.15 K, m1 = 0.03153 | 1091.94
308.15 K, m1 = 0.00514 | 1085.66
308.15 K, m1 = 0.00817 | 1085.81
308.15 K, m1 = 0.01139 | 1085.97
308.15 K, m1 = 0.01418 | 1086.11
308.15 K, m1 = 0.01696 | 1086.25
308.15 K, m1 = 0.01992 | 1086.41
308.15 K, m1 = 0.02347 | 1086.59
308.15 K, m1 = 0.0264 | 1086.74
308.15 K, m1 = 0.02914 | 1086.88
308.15 K, m1 = 0.03167 | 1087.01
313.15 K, m1 = 0.00489 | 1080.7
313.15 K, m1 = 0.00769 | 1080.83
313.15 K, m1 = 0.01069 | 1080.98
313.15 K, m1 = 0.01325 | 1081.11
313.15 K, m1 = 0.01542 | 1081.23
313.15 K, m1 = 0.01934 | 1081.43
313.15 K, m1 = 0.02264 | 1081.6
313.15 K, m1 = 0.02575 | 1081.76
313.15 K, m1 = 0.02845 | 1081.9
313.15 K, m1 = 0.03154 | 1082.06

C[S+](C)[O-] [dimethyl sulfoxide] + CCCCn1cc[n+](C)c1.[Br-]
[2], m2 = 0
Details | mass density [kg/m3]
293.15 K | 1100.22
303.15 K | 1090.36
308.15 K | 1085.41
313.15 K | 1080.45

CCCCCCCCn1cc[n+](C)c1.[Br-] [1-methyl-3-octylimidazolium bromide] + C[S+](C)[O-]
[2]
Details | mass density [kg/m3]
293.15 K, m1 = 0.00222 | 1100.28
293.15 K, m1 = 0.00411 | 1100.33
293.15 K, m1 = 0.00639 | 1100.39
293.15 K, m1 = 0.00868 | 1100.45
293.15 K, m1 = 0.01098 | 1100.51
293.15 K, m1 = 0.01287 | 1100.56
293.15 K, m1 = 0.0156 | 1100.63
293.15 K, m1 = 0.01754 | 1100.68
293.15 K, m1 = 0.01986 | 1100.74
293.15 K, m1 = 0.0222 | 1100.8
303.15 K, m1 = 0.00254 | 1090.41
303.15 K, m1 = 0.00588 | 1090.5
303.15 K, m1 = 0.00888 | 1090.58
303.15 K, m1 = 0.01151 | 1090.65
303.15 K, m1 = 0.01491 | 1090.74
303.15 K, m1 = 0.01758 | 1090.81
303.15 K, m1 = 0.02064 | 1090.89
303.15 K, m1 = 0.02333 | 1090.96
303.15 K, m1 = 0.02681 | 1091.05
303.15 K, m1 = 0.03031 | 1091.14
308.15 K, m1 = 0.00216 | 1085.43
308.15 K, m1 = 0.00471 | 1085.5
308.15 K, m1 = 0.00692 | 1085.56
308.15 K, m1 = 0.00913 | 1085.62
308.15 K, m1 = 0.01398 | 1085.75
308.15 K, m1 = 0.01624 | 1085.81
308.15 K, m1 = 0.01888 | 1085.88
308.15 K, m1 = 0.02155 | 1085.95
308.15 K, m1 = 0.02348 | 1086
308.15 K, m1 = 0.02616 | 1086.07
313.15 K, m1 = 0.00623 | 1080.57
313.15 K, m1 = 0.01004 | 1080.67
313.15 K, m1 = 0.01351 | 1080.76
313.15 K, m1 = 0.01667 | 1080.84
313.15 K, m1 = 0.01987 | 1080.92
313.15 K, m1 = 0.02275 | 1080.99
313.15 K, m1 = 0.02686 | 1081.09
313.15 K, m1 = 0.02946 | 1081.15
313.15 K, m1 = 0.03287 | 1081.23
313.15 K, m1 = 0.03631 | 1081.31

From the NIST ThermoML archive (doi:10.1021/je300017m)
